“Also recorded” adds a separate entry of the source. Positions of bridges follow the written chain, without caps; N, C: chain ends. Residues, ends and D or L forms follow the SMILES beside them.
Legend:
SA AgrC-II = SA AgrC-II (Staphylococcus aureus, UniProt O33587); assay: β-Lactamase assay, reporter strain RN10829 (P2-agrA:P3-blaZ) with pagrC-II; type: cell-based
How it was run: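 S. aureus RN10829 P2-agrA:P3-blaZ reporter carrying a plasmid for the matching wild-type AgrC, grown in TSB to OD600 0.35–0.40. Cells met peptides (10 μM–10 pM) plus cognate AIP at 100 nM for 1 h at 37°C, then nitrocefin (33.3 μg/mL) turnover was read at OD486 for 10 min; IC50 from linear rates.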

[1] = tested on: S. aureus agr-I P3-YFP reporter strain; assay: Quorum sensing inhibition resistance development experiment; type: cell-based, Staphylococcus aureus; conditions: flow cytometry
Method: The next day, YFP expression levels were assessed by flow cytometry (YFP: excitation 500 nm, emission 541 nm), and the overnight cultures were diluted 1:250 in fresh TSB medium containing CAM and 33 or no peptide (final volume 2.0 mL) and incubated overnight at 37°C in a shaking incubator. The procedure was repeated in total for 15 days, and the passaged cultures were subsequently frozen at −80°C. The passaged cultures were inoculated from frozen stocks in 2.0 mL TSB medium containing CAM in 15 mL centrifugal tubes and incubated overnight at 37°C in a shaking incubator.

SA AgrC-I = SA AgrC-I (Staphylococcus aureus, UniProt O07911); assay: β-Lactamase assay, reporter strain RN10829 (P2-agrA:P3-blaZ) with pagrC-I; type: cell-based
Sequence of SA AgrC-I (O07911 entry or part of it): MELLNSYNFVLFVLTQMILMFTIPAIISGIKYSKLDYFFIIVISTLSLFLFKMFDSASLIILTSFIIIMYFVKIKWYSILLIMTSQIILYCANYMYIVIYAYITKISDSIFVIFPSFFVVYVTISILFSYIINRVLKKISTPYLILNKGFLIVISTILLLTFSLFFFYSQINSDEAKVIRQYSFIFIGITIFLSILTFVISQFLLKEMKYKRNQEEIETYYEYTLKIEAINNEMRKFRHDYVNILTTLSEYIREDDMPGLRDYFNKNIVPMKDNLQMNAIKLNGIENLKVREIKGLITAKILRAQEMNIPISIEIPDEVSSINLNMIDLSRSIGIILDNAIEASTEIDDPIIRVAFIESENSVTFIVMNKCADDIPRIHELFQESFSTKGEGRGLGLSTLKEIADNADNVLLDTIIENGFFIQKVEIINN
How it was run: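 S. aureus RN10829 (P2-agrA:P3-blaZ) expressing AgrC-I from plasmid, grown in TSB to OD600 0.35–0.40, treated with peptides (10 μM–10 pM) plus cognate AIP (100 nM) for 1 h at 37°C, 200 rpm.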

S. aureus (SA) agr-I = tested on: S. aureus (SA) agr-I; set-up: method as in ref (5) (a number printed in a supplementary file, which may have a reference list of its own: not looked up in the article's list); conditions: hemolysis; ref (5); cited from earlier work
[2] = tested on: S. epidermidis (SE) agr-II; conditions: fluorescence; at 100 nM; ref (11); cited from earlier work
S. aureus (SA) agr-IV [3] = tested on: S. aureus (SA) agr-IV; set-up: method as in ref (5) (a number printed in a supplementary file, which may have a reference list of its own: not looked up in the article's list); conditions: hemolysis; ref (5); cited from earlier work
[4] = tested on: S. epidermidis (SE) agr-I; set-up: method as in ref (9) (a number printed in a supplementary file, which may have a reference list of its own: not looked up in the article's list); conditions: HPLC d-toxin, ref (9); cited from earlier work
S. aureus (SA) agr-IV [5] = conditions: b-lactamase; ref (4); cited from earlier work

Sequence of SA AgrC-II (O33587 entry or part of it): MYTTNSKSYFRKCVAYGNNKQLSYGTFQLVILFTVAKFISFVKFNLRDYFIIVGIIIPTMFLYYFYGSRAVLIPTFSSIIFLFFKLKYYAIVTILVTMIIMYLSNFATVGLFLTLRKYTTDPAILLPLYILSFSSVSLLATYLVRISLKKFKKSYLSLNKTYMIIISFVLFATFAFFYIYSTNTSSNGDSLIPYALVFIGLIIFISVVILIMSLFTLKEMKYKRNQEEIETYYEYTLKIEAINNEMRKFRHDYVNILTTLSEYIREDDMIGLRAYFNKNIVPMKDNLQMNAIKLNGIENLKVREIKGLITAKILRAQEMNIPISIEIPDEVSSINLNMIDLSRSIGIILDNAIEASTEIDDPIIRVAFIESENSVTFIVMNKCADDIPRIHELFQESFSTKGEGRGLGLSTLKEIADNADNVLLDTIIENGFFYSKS

What does the source list for NCCCC[C@H](N)C(=O)N[C@@H](Cc1ccc(O)cc1)C(=O)N[C@@H](Cc1ccc(O)cc1)C(=O)N1CCC[C@H]1C(=O)N[C@H]1CSC(=O)[C@H](Cc2ccccc2)NC(=O)[C@H](Cc2ccc(O)cc2)NC(=O)CNC(=O)[C@H](Cc2c[nH]c3ccccc23)NC1=O [compound 33, S. simulans AIP-II] (H-KYYPCWGYF; thioester 5-C)?
IC50 (SA AgrC-II): 80 ± 7 nM; agr activity during daily passaging for 15 days ([1]; 33 at 2 nM or 100 nM): full repression of agr activity; also recorded: repressed agr activity; susceptibility to QS inhibition after 15 passages compared with non-passaged reporter strain ([1]; passaged cultures treated with 33 (10–0.08 nM)): no change in potency; also recorded: remained equally susceptible; IC50 (SA AgrC-I): 1.9 ± 0.3 nM

With “S. aureus AIP-III D4A [compound 57, reference compound]” as the compound, how does the IC50 (S. aureus (SA) agr-I) read?
Its IC50 is 0.082 nM.

And the “inhibition at 100 nM, SE agr-II” value [2]?
Its value is ~ 70%.

And the IC50 (S. aureus (SA) agr-IV [3])?
Its IC50 is 0.11 nM.

For NCCCC[C@H](N)C(=O)N[C@@H](Cc1ccc(O)cc1)C(=O)N[C@@H](CC(N)=O)C(=O)N1CCC[C@H]1C(=O)N[C@H]1CSC(=O)[C@H](Cc2ccccc2)NC(=O)[C@H](Cc2ccc(O)cc2)NC(=O)CNC(=O)[C@H](Cc2c[nH]c3ccccc23)NC1=O [compound 34, S. simulans AIP-III] (H-KYNPCWGYF; thioester 5-C), which IC50 (SA AgrC-II) is on record?
The IC50 was 60 ± 7 nM.

What about the IC50 (SA AgrC-I) of the same compound?
The IC50 was 1.6 ± 0.1 nM.

For CC[C@H](C)[C@@H]1NC(=O)[C@H](Cc2ccccc2)NC(=O)[C@H](CC(=O)O)NC(=O)[C@@H](NC(=O)[C@@H](NC(=O)[C@H](CO)NC(=O)[C@@H](N)Cc2ccc(O)cc2)[C@@H](C)O)CSC(=O)[C@H](CCSC)NC1=O [compound 1, S. aureus AIP-I] (H-YSTCDFIM; thioester 4-C), which “inhibition at 1000 nM, SE agr-I” value [4] is on record?
The value was “no inhibition”.

And the EC50 (S. aureus (SA) agr-IV [5])?
The EC50 was 26000 nM.

Source: article PMC12345137 (mBio, 2025)
